Where a name gives a salt, the structure may show the parent alone.
Experiments:
5-HT4 receptor [1] = conditions: known compound, as said in the art; cited from earlier work
5-HT4 receptor [2] = molecular target: T1, 5-HT4 receptor (Rattus norvegicus, UniProt Q62758); experiment: Agonisting action to 5-HT4 receptor: relaxation of carbachol-contracted muscular sample of mucous membrane of rat esophagus (Baxter et al.); format: cell-based; conditions: carbachol contraction, read-out: P EC50 (negative logarithm of concentration causing 50% relaxation) (converted)
T1 construct: a muscular sample of mucous membrane in esophgus exentrated from a rat; from tissue; host or cells: rat oesophagus, muscularis mucosae (isolated)
T1 sequence (Q62758 whole entry): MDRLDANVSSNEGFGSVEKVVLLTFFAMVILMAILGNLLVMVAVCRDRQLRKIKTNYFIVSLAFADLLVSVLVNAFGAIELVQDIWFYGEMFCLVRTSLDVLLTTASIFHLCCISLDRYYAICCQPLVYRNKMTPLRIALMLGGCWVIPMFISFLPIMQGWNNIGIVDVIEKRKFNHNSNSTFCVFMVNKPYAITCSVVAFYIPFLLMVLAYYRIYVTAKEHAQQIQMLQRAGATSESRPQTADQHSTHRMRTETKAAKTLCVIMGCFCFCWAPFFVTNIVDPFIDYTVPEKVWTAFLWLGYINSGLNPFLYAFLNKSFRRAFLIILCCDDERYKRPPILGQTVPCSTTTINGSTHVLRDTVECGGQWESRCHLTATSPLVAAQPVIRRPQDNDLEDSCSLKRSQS
Description: (Agonisting action to 5-HT4 receptor)
Pharmacol.", Vol. 343, page 439 (1991)!.
Namely, a relaxation of the Test and Control compounds in various concentration showing to carbachol contradiction of a muscular sample of mucous membrane in esophgus exentrated from a rat was checked to calculate a concentration causing 50% relaxation and compared with its negative logarithm (P EC50).

dopamine D2 receptor = conditions: rat, in vivo, po, 100 mg/kg
Description: The compounds obtained by Examples as well as known compound (Metoclopramide) were selected as Test and Control Compounds, respectively. The compound was orally administered to rats to observe for 2 days general symptoms including catalepsy and blepharoptosis due to antagonistic action of the compound to dopamine D2 receptor.

SMILES | EC50 (5-HT4 receptor [2]) | other results
COc1cc(N)c(Cl)cc1C(=O)NC1CCN(CCCOc2ccc(F)cc2)CC1OC (stereo not drawn) [Cisapride] | – | agonisting action to 5-HT4 receptor (5-HT4 receptor [1]): strong agonisting action to 5-HT4 receptor
Nc1c(Cl)cc(C(=O)NCCC23CCCN2CCC3)c2c1CCCO2 [Example 1, 5-Amino-N-2-(1-azabicyclo 3.3.0!octan-5-yl)ethyl!-6-chloro-3,4-dihydro-2H-1-benzopyran-8-carboxamide·1/2 fumarate] | 0.00501 µM | –
CC1CCc2c(N)c(Cl)cc(C(=O)NCCC34CCCN3CCC4)c2O1 (stereo not drawn) [Example 2, 5-Amino-N-2-(1-azabicyclo 3.3.0!octan-5-yl)ethyl!-6-chloro-3,4-dihydro-2-methyl-2H-1-benzopyran-8-carboxamide·1/2 fumarate] | 0.02 µM | –
Nc1c(Cl)cc(C(=O)NCCC23CCCN2CCC3)c2c1C=CCO2 [Example 3, 5-Amino-N-2-(1-azabicyclo 3.3.0!octan-5-yl)ethyl!-6-chloro-2H-1-benzopyran-8-carboxamide·1/2 fumarate] | 0.0251 µM | –
O=C(NCCC12CCCN1CCC2)c1cccc2c1OCCC2 [Example 4, N-2-(1-Azabicyclo 3.3.0!octan-5-yl)ethyl!-3,4-dihydro-2H-1-benzopyran-8-carboxamide·1/2 fumarate] | 12.6 µM | –
O=C(NCCC12CCCN1CCC2)c1ccc(Cl)c2c1OCCC2 [Example 5, N-2-(1-Azabicyclo 3.3.0!octan-5-yl)ethyl!-3,4-dihydro-5-chloro-2H-1-benzopyran-8-carboxamide· fumarate] | 25.1 µM | –
O=C(NCCC12CCCN1CCC2)c1cc(Cl)cc2c1OCCC2 [Example 6, N-2-(1-Azabicyclo 3.3.0!octan-5-yl)ethyl!-3,4-dihydro-6-chloro-2H-1-benzopyran-8-carboxamide·1/2 fumarate] | 12.6 µM | –
CCN(CC)CCNC(=O)c1cc(Cl)c(N)cc1OC [Metoclopramide, 4-amino-5-chloro-N-(2-diethylamino)ethyl!-2-methoxybenzamide] | – | influence to central nerve system due to anti-dopamine action (dopamine D2 receptor): somewhat remarkable influence was recognized

More lines, main results first:

EC50 (5-HT4 receptor [2]) | SMILES | other results
25.1 µM | COc1cc2c(c(C(=O)NCCC34CCCN3CCC4)c1)OCCC2 [Example 7, N-2-(1-Azabicyclo 3.3.0!octan-5-yl)ethyl!-3,4-dihydro-6-methoxy-2H-1-benzopyran-8-carboxamide·1/2 fumarate] | –
20 µM | Cc1ccc(C(=O)NCCC23CCCN2CCC3)c2c1CCCO2 [Example 8, N-2-(1-Azabicyclo 3.3.0!octan-5-yl)ethyl!-3,4-dihydro-5-methyl-2H-1-benzopyran-8-carboxamide·1/2 fumarate] | –
15.8 µM | Cc1cc2c(c(C(=O)NCCC34CCCN3CCC4)c1)OCCC2 [Example 9, N-2-(1-Azabicyclo 3.3.0!octan-5-yl)ethyl!-3,4-dihydro-6-methyl-2H-1-benzopyran-8-carboxamide·1/2 fumarate] | –
7.94 µM | CC(=O)Nc1c(Cl)cc(C(=O)NCCC23CCCN2CCC3)c2c1CCCO2 [Example 10, 5-Acetylamino-N-2-(1-azabicyclo 3.3.0!octan-5-yl)ethyl!-6-chloro-3,4-dihydro-2H-1-benzopyran-8-carboxamide· fumarate] | –

Source: patent US5502209A, “Benzopyrancarboxamide derivatives, salts thereof, process for the preparation of same and use thereof” (Sanwa Kagaku Kenkyusho Co., Ltd., priority 1994, dated 1996)
